# Assays:
# ACC2 [1] = biological target: ACC2 (Homo sapiens, UniProt O00763); test: in vitro ACC2 inhibition assay (ADP-Glo); format: biochemical; details: 5 nM ACC2, 20 μM ATP, 20 μM acetyl-CoA, 60 min room temperature, luminescence
# Method: In Vitro Acetyl-CoA Carboxylase (ACC) Inhibition Assay
# An exemplary procedure for the in vitro ACC inhibition assay, which can be used to determine the inhibitory action of compounds of the invention toward either ACCT or ACC2, follows. The ADP-Glo™ Kinase Assay kit from Promega is used. The ADP-Glo™ Kinase Assay is a luminescent ADP detection assay to measure enzymatic activity by quantifying the amount of ADP produced during an enzyme reaction. The assay is performed in two steps; first, after the enzyme reaction, an equal volume of ADP-Glo™ Reagent is added to terminate the reaction and deplete the remaining ATP. Second, the Kinase Detection Reagent is added to simultaneously convert ADP to ATP and allow the newly synthesized ATP to be measured using a luciferase/luciferin reaction. Luminescence can be correlated to ADP concentrations by using an ATP-to-ADP conversion curve. The detailed procedure is as follows. 50 μL of the compound being tested (600 uM in DMSO) is added to a 384-well dilution plate. The compound is diluted 1:3 in succession in DMSO for each row for 11 wells. […] is added to 384-well white Optiplate assay plate. 0.5 μL diluted compound solution in each column from step 2 is added to the assay plate, each row containing 2 replicates. For the last 2 rows, add 0.5 μL negative control (DMSO) in one row and 0.5 μL positive control (compound I-97) in the other. The plates are incubated at room temperature for 15 minutes. 5 μL substrate working solution is added to each well to initiate reaction. Final ACC2 reaction concentrations consist of: 5 nM ACC2, 20 μM ATP, 20 μM acetyl-CoA, 12 mM NaHCO3, 0.01% Brij35, 2 mM DTT, 5% DMSO, test compound concentrations: 30 μM, 10 μM, 3.33 μM, 1.11 μM, 0.37 μM, 0.123 μM, 0.0411 μM, 0.0137 μM, 0.00457 μM, 0.00152 μM, and 0.00051 μM. Plates are incubated at room temperature for 60 minutes. 10 μL ADP glo reagent is added. Plates are incubated at room temperature for 40 minutes. 20 μL kinase detection reagent is added. Plates are incubated at room temperature for 40 minutes, then read on a Perkin Elmer EnVision 2104 plate reader for luminescence as Relative Light Units (RLU).
# Data for each concentration, as well as the positive and negative controls are averaged, and the standard deviation calculated. Percent inhibition is calculated by the formula: 100×(average negative control−compound)/(average negative control−average positive control). The IC50 for each compound is calculated by fitting the data with a non-linear regression equation: Y=Bottom+(Top-Bottom)/(1+10^((Log IC50−X)*HillSlope)), where X is the log of compound concentration and Y is percent inhibition.
# The compound numbers correspond to the compound numbers in Table 1. Compounds having an activity designated as “AAA” provided an IC50≦0.1 μM; compounds having an activity designated as “AA” provided an IC50≦1 μM; compounds having an activity designated as “A” provided an IC50≦5 μM; compounds having an activity designated as “B” provided an IC50 of 5-20 μM; compounds having an activity designated as “C” provided an IC50 of 20-50 μM; and compounds having an activity designated as “D” provided an IC50≧50 μM
# ACC1 = ACC1 isolated from rat, mouse, monkey and human; cited from earlier work
# ACC2 [2] = details: ACC2 isolated from rat, mouse, monkey and human; cited from earlier work
# Sequence of ACC2 (Homo sapiens, UniProt O00763) (O00763 whole entry, species assumed): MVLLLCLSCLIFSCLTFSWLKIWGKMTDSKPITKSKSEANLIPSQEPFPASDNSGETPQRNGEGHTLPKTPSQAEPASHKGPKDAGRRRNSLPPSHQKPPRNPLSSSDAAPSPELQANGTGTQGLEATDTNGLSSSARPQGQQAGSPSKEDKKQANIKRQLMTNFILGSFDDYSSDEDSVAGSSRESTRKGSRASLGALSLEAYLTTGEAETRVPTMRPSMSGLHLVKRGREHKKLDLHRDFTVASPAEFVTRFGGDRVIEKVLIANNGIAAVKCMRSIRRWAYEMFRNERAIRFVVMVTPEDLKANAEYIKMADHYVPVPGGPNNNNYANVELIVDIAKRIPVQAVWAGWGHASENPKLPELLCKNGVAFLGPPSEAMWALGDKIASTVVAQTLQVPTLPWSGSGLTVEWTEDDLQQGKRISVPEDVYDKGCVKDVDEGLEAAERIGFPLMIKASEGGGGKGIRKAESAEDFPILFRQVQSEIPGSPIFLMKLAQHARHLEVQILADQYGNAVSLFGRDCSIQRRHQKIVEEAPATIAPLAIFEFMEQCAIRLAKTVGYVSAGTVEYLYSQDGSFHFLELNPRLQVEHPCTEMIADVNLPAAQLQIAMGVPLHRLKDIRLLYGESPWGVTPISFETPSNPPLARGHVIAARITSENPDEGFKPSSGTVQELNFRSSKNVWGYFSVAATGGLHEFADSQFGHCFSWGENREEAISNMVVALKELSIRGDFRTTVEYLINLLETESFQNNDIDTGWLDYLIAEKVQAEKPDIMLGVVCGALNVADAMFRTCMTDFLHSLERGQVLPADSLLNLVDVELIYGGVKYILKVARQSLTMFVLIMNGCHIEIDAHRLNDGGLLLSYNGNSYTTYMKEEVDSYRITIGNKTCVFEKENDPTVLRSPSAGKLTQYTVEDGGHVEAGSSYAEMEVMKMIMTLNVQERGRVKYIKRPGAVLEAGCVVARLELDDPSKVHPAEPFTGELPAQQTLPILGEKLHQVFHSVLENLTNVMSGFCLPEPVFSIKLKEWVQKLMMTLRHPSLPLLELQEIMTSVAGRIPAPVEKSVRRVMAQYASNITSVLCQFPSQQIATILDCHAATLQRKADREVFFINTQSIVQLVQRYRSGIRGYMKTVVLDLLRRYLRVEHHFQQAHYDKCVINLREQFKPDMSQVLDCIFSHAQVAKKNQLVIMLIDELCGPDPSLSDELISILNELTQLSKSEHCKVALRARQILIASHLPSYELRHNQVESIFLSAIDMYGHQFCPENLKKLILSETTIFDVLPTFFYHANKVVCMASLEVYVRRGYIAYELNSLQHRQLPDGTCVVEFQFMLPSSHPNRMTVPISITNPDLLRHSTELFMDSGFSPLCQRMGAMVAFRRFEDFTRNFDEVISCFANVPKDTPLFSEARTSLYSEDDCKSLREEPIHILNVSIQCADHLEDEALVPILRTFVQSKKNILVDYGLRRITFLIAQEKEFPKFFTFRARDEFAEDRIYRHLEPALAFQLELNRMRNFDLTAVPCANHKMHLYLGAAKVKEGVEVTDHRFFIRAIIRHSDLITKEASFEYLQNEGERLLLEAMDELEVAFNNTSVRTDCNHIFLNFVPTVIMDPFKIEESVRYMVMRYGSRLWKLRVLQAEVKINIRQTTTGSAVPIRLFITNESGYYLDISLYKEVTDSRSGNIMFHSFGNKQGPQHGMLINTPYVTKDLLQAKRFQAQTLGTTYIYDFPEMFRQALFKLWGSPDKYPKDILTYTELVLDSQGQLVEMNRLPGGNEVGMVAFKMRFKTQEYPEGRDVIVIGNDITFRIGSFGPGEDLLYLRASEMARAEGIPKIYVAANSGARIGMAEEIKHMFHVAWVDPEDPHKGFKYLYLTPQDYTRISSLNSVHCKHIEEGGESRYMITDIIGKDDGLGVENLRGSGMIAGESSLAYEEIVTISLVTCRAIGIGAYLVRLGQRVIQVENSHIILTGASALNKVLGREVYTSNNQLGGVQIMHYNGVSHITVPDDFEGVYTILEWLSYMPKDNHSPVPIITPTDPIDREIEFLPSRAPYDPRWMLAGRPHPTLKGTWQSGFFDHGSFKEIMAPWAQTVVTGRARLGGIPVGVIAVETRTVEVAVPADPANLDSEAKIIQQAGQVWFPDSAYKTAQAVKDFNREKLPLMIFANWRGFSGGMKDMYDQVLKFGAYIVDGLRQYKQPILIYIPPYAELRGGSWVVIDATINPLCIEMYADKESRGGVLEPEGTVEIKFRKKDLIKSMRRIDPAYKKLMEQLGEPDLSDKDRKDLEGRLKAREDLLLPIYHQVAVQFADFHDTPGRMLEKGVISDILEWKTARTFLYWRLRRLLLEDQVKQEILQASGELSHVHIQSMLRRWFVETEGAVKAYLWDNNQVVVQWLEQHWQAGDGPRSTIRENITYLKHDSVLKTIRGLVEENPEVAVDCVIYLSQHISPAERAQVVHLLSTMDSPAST
IC50 (ACC2 [1]) [µM],Compound,IC50 (ACC1) [µM],IC50 (ACC2 [2]) [µM]
5 to 20,"COc1ccccc1[C@H](CN1C(=O)N(C(C)(C)C(=O)O)S(=O)(=O)c2c1sc(-c1ncco1)c2C)OC1CCOCC1 [Compound I-46, (R)-2-(4-(2-(2-methoxyphenyl)-2-((tetrahydro-2H-pyran-4-yl)oxy)ethyl)-7-methyl-6-(oxazol-2-yl)-1,1-dioxido-3-oxo-3,4-dihydro-2H-thieno[2,3-e][1,2,4]thiadiazin-2-yl)-2-methylpropanoic acid]",–,–
5 to 20,"CCOC(=O)c1sc2c(c1C)S(=O)(=O)N(C(C)(C)C(=O)OCc1ccccc1)C(=O)N2C[C@H](OC(C)C)c1cc(F)ccc1OC [Compound I-48, (R)-ethyl 2-(1-(benzyloxy)-2-methyl-1-oxopropan-2-yl)-4-(2-(5-fluoro-2-methoxyphenyl)-2-isopropoxyethyl)-7-methyl-3-oxo-3,4-dihydro-2H-thieno[2,3-e][1,2,4]thiadiazine-6-carboxylate 1,1-dioxide]",–,–
5 to 20,"COc1ccccc1CCN1c2sc(-c3ncco3)c(C)c2C(=O)N(CC(N)=O)S1(=O)=O [Compound I-44, 2-(1-(2-methoxyphenethyl)-5-methyl-6-(oxazol-2-yl)-2,2-dioxido-4-oxo-1H-thieno[2,3-c][1,2,6]thiadiazin-3(4H)-yl)acetamide]",–,–
≤ 5,"COc1ccc(F)cc1[C@H](CN1C(=O)N(C(C)(C)C(=O)O)S(=O)(=O)c2c1sc(-c1ncco1)c2C)OC1CCOCC1 [Compound I-42, (R)-2-(4-(2-(5-fluoro-2-methoxyphenyl)-2-((tetrahydro-2H-pyran-4-yl)oxy)ethyl)-7-methyl-6-(oxazol-2-yl)-1,1-dioxido-3-oxo-3,4-dihydro-2H-thieno[2,3-e][1,2,4]thiadiazin-2-yl)-2-methylpropanoic acid]",–,–
–,O=C(c1c2ccccc2cc2ccccc12)N1CCC(N2CCC[C@@H](C(=O)N3CCOCC3)C2)CC1 [CP-640186],~0.06,~0.06
5 to 20,"COc1ccccc1[C@H](CN1C(=O)N(C(C)(C)C(=O)O)S(=O)(=O)c2c1sc(-c1ncco1)c2C)O[C@H]1CC[C@@H](O)CC1 [Compound I-47, 2-(4-((R)-2-(((1s,4S)-4-hydroxycyclohexyl)oxy)-2-(2-methoxyphenyl)ethyl)-7-methyl-6-(oxazol-2-yl)-1,1-dioxido-3-oxo-3,4-dihydro-2H-thieno[2,3-e][1,2,4]thiadiazin-2-yl)-2-methylpropanoic acid]",–,–
≥ 50,"COc1ccccc1CCc1nn(CC(=O)O)c(=O)c2c(C)c(-c3ncco3)sc12 [Compound I-49, 2-(7-(2-methoxyphenethyl)-3-methyl-2-(oxazol-2-yl)-4-oxothieno[2,3-d]pyridazin-5(4H)-yl)acetic acid]",–,–
≤ 0.1,"2-(4-((R)-2-(5-fluoro-2-methoxyphenyl)-2-((tetrahydro-2H-pyran-4-yl)oxy)ethyl)-7-methyl-6-(oxazol-2-yl)-1,1-dioxido-3-oxo-3,4,4a,7a-tetra-hydro-2H-thieno[2,3-e][1,2,4]thiadiazin-2-yl)acetic acid [Compound I-41]",–,–
5 to 20,"COc1ccccc1CCN1c2sc(-c3ncco3)c(C)c2C(=O)N(CC(=O)O)S1(=O)=O [Compound I-43, 2-(1-(2-methoxyphenethyl)-5-methyl-6-(oxazol-2-yl)-2,2-dioxido-4-oxo-1H-thieno[2,3-c][1,2,6]thiadiazin-3(4H)-yl)acetic acid]",–,–
5 to 20,"COc1ccc(F)cc1[C@H](CN1C(=O)N(C(C)(C)C(=O)O)S(=O)(=O)c2c1sc(-c1ncco1)c2C)OC(C)C [Compound I-45, (R)-2-(4-(2-(5-fluoro-2-methoxyphenyl)-2-isopropoxyethyl)-7-methyl-6-(oxazol-2-yl)-1,1-dioxido-3-oxo-3,4-dihydro-2H-thieno[2,3-e][1,2,4]thiadiazin-2-yl)-2-methylpropanoic acid]",–,–
